# Assay results taken from patent US20180044628A1, “Method for Biofilm Control and Treatment” (priority 2015, published 2018).
# How the values were obtained:
# Type in all cases: cell-based, Bacillus subtilis NCIB 3610
# [1] = test system: Bacillus subtilis biofilms; experiment: Cell death (Sytox Green) and cell growth (difference images) within biofilms under external attack
# Procedure: Scale bar represents 50 μm. […] Error bars represent standard deviations.
# Scale bar represents 100 μm.
# (§1) Biofilm growth rate. ImageJ (National Institutes of Health) and MATLAB (MathWorks) were used for image analysis. In house software was also developed to perform colony detection and quantification of colony expansion. Multiple methods of colony detection were used to ensure the accuracy of the analysis. To detect regions of expansion in a biofilm, image differencing was performed on snapshots of the biofilm from time-lapse microscopy videos. Specifically, the difference between two consecutive phase contrast images (taken 10 min apart) was calculated by finding the absolute difference between each pixel in each image. […] The intensity values from the stack correlate with the expansion inside the biofilm. The growth area was determined by converting difference images to binary images and then measuring the area of the colony growth region (white pixels). To measure cell replication time, the length and division of individual cells were tracked in the biofilm periphery (FIG. 8b).
# nasA promoter = experiment: PnasA-YFP reporter of glutamine limitation in biofilms, with constitutive Phyperspank-CFP as control
# Procedure: FIG. 2a. […] Glutamine limitation was monitored using YFP expressed from the nasA promoter, which is activated upon glutamine limitation^21. FIG. 2b. […] FIG. 2c. Growth area before and after addition of 1 mM glutamine to an oscillating colony. FIG. 2d. […] FIG. 2e. […] Scale bar represents 100 μm. FIG. 2f. Growth area of an oscillating colony before and after addition of 30 mM glutamate (shading). FIG. 2g.
# To determine whether biofilms experience glutamine limitation, expression of nasA, one of several genes activated in response to a lack of glutamine^21, was measured.
# [2] = test system: Bacillus subtilis biofilms; experiment: Biofilm growth oscillations in a microfluidic device, followed by time-lapse phase contrast microscopy and image differencing
# Procedure: Growth conditions. The biofilms were grown using MSgg medium^16. It contains 5 mM potassium phosphate buffer (pH 7.0), 100 mM MOPS buffer (pH 7.0, adjusted using NaOH), 2 mM MgCl2, 700 μM CaCl2, 50 μM MnCl2, 100 μM FeCl3, 1 μM ZnCl2, 2 μM thiamine HCl, 0.5% (v/v) glycerol and 0.5% (w/v) monosodium glutamate. The MSgg medium was made from stock solutions on the day of the experiment, and the stock solution for glutamate was made each week.
# Microfluidics. The CellASIC ONIX Microfluidic Platform and the Y04D microfluidic plate (EMD Millipore) were used. It provides unconventionally large chambers, allowing the formation of colonies containing millions of cells, yet still leaves room for media flow. Media flow in the microfluidic chamber was driven by a pneumatic pump from the CellASIC ONIX Microfluidic Platform, and the pressure from the pump was kept stable during the course of the oscillation. In most of the experiments, a pump pressure of 1 psi was used with only one media inlet open (there are 6 media inlets in the Y04D plate), which corresponds to a flow speed of ˜16 μm/s in the growth chamber.
# On the day before the experiment, cells from −80° C. glycerol stock were streaked onto LB agar plate and incubated at 37° C. for overnight. The next day morning, a single colony was picked from the plate and inoculated into 3 ml of LB broth in a 50 ml conical tube, and then incubated in 37° C. shaker. After 2.5 hours of incubation, the cell culture was centrifuged at 2100 rcf for 1 min, and then the cell pellet was re-suspended in MSgg and then immediately loaded into microfluidics. After the loading, cells in the microfluidic chamber were incubated at 37° C. for 90 min, and then the temperature was kept at 30° C. for the rest of the experiment.
# Time-Lapse Microscopy. The growth of the biofilms was recorded using phase contrast microscopy. The microscopes used were Olympus IX81 and IX83, and DeltaVision PersonalDV. To image entire biofilms, 10× lens objectives were used in most of the experiments. Images were taken every 10 min Whenever fluorescence images were recorded, the minimum exposure time was used that still provided a good signal-to-noise ratio.
# as §1
# [3] = 1 mM glutamine added to growth media
structure (smiles),measurement,setting,value
O=C(N[C@H](CO)[C@H](O)c1ccc([N+](=O)[O-])cc1)C(Cl)Cl [chloramphenicol],growth of interior cells after attack,"[1]; wild type biofilm, chloramphenicol 5 μg/ml (FIG. 12)",growth of interior cells was observed
NC(=O)CC[C@H](N)C(=O)O [glutamine],expression of constitutive promoter (Phyperspank-CFP + 1 mM IPTG),nasA promoter; [3],did not affect expression of a constitutive promoter
same,nasA promoter expression (PnasA-YFP),nasA promoter; [3],reduced nasA promoter expression
same,effect on periodic halting of biofilm growth (oscillations),"[2]; 1 mM glutamine added to MSgg medium, oscillating colony",eliminated periodic halting of biofilm growth
"N[C@@H](CCC(=O)O)C(=O)[O-].[Na+] [glutamate, monosodium glutamate]",effect on biofilm oscillations,"[2]; 30 mM glutamate added to MSgg medium, oscillating colony",not quenched
same,effect on biofilm oscillations,[2]; glutamate increased by 5 times of normal MSgg levels,leads to quenching of the oscillation
OCC(O)CO [glycerol],effect on biofilm oscillations,[2]; glycerol increased by 5 times of normal MSgg levels,does not
N [ammonium],expression from constitutive reporter (Phyperspank-CFP + 1 mM IPTG),nasA promoter; 1 mM external ammonium added,does not affect expression from a constitutive reporter
same,expression from the PnasA-YFP reporter,nasA promoter; 1 mM external ammonium added,represses expression from the PnasA-YFP reporter
same,colony growth after removal of external ammonium,[2]; additional ammonium (13 mM) suddenly removed from the media,growth in the biofilm periphery halted
same,effect on periodic halting in biofilm expansion,[2]; media supplemented with 1 mM ammonium,eliminated the periodic halting in biofilm expansion
OO [hydrogen peroxide],killing of biofilm,"[1]; GDH overexpression strain (Phyp-RocG, induced with 1 mM IPTG) exposed to hydrogen peroxide",more effective global killing throughout the biofilm
same,cell death (Sytox marker) in biofilm,"[1]; wild type biofilm, H2O2 2% w/w (FIG. 4b) or 0.15% v/v (FIG. 12)",increased cell death was observed predominantly in the biofilm periphery
same,growth of interior cells after attack,"[1]; wild type biofilm, H2O2 2% w/w (FIG. 4c) or 0.15% v/v (FIG. 12)",led to growth of interior cells
